From paper PMC5347165, “Killing of Staphylococcus aureus and Salmonella enteritidis and neutralization of lipopolysaccharide by 17-residue bovine lactoferricins: improved activity of Trp/Ala-containing molecules” (Scientific Reports, 2017)
Values joined by “and” are separate entries in the source; they are usually repeats but may differ in a detail not shown here. Equal entries are not always repeated. Where two headings read alike, the source gives them in different places.

Tests used:
[1] = test system: S. enteritidis CVCC3377; type: cell-based, Salmonella enteritidis; conditions: microtiter broth dilution, 10^5 CFU/ml, 16‒18 h at 37 °C; representative of three independent experiments
Method: (§1) The MIC values of LfcinB17-33 derivatives against bacteria were determined by the microtiter broth dilution method. Briefly, 10 μl of serially diluted aliquots of peptides were added to each well of 96-well microtiter plates, followed by the addition of 90 μl exponential phase bacteria (10^5 CFU/ml) and incubated for 16‒18 h at 37 °C.

[2] = test system: P. aeruginosa CICC21630; type: cell-based, Pseudomonas aeruginosa; conditions: microtiter broth dilution, 10^5 CFU/ml, 16‒18 h at 37 °C; representative of three independent experiments
Method: as §1

[3] = test system: S. aureus ATCC25923; type: in vivo; conditions: for reduction of bacterial burden in thigh: 10 h after treatment
Method: The thigh infection protocol was performed as previously described. Female BALB/c mice (6 weeks old, 22 ± 2 g) were rendered neutropenic (neutrophils, 100/mm^3) by intraperitoneal injection with 150 and 100 mg cyclophosphamide per kg of body weight for 4 d and 1 d before infection, respectively. Mice were inoculated with 100 μl of S. aureus ATCC25923 cells (1.0 × 10^7 CFU/ml) and given a single dose (0.2 ml) of Lfcin4 or Lfcin5 (10 or 15 mg/kg of body weight) or vancomycin (10 mg/kg of body weight) by tail vein injection at 2 h post-infection. Mice were humanely euthanized by cervical dislocation at 5 and 10 h after treatment. Thighs were removed and homogenized in sterile PBS for a CFU assay for S. aureus ATCC25923.

[4] = test system: genomic DNA from S. aureus ATCC25923; assay: Gel retardation (EMSA) of genomic DNA; type: binding, Staphylococcus aureus; conditions: 0.7% agarose gel, 10 min 37 °C; ratios tested 0, 0.5, 1, 2.5, 5, 10 (w/w)
Method: Genomic DNA was extracted from S. aureus ATCC25923, E. coli O157 and S. enteritidis CVCC3377 using a TIANamp Bacteria DNA Kit (TIANGEN Biotech Co., Ltd., Beijing). The gel retardation experiment was performed by mixing the bacterial DNA with different concentrations of Lfcin4 or Lfcin5 in 20 μl binding buffer (10 mM Tris-HCl, pH 8.0, 5% glycerol, 1 mM dithiothreitol, 1 mM EDTA, 20 mM KCl, and 50 μg/ml bovine serum albumin)[41]. The ratios of peptide to DNA were 0, 0.5, 1, 2.5, 5.0, and 10.0 (w/w). The mixtures were incubated for 10 min at 37 °C and then subjected to electrophoresis on a 0.7% agarose gel.

[5] = test system: S. enteritidis CVCC3377; assay: Cell surface hydrophobicity, hexadecane partitioning; type: cell-based, Salmonella enteritidis; conditions: peptide 1×, 2× or 4× MIC, 10 min 37 °C, increased from 9.43% (untreated) to this value, mean, n = 3
Method: The effects of AMPs on the cell surface hydrophobicity of S. aureus ATCC25923 and S. enteritidis CVCC3377 were measured using the hexadecane partitioning method. Cells were grown to stationary phase in Mueller-Hinton broth at 37 °C, harvested by centrifugation at 5000 rpm for 4 min, washed twice with sterile normal saline, and suspended in 0.1 M KNO3 (pH 6.2) to an OD600 nm of 0.4. […] Sterile normal saline was used as a negative control, and the optical density at 600 nm was measured as OD0. Subsequently, a 1.2-ml cell suspension was mixed with 0.2 ml of hexadecane by vortexing for 1 min, and then, the mixture was incubated for 15 min. The OD600 nm value of the aqueous phase was determined as OD1. The hydrophobicity percentages were calculated by the following equation: hydrophobicity (%) = (1 − OD1/OD0) × 100%. All experiments were repeated three times.

[6] = test system: LPS-induced lung injury; assay: LPS-induced lung injury, histology; type: in vivo, mouse (C57BL/6); conditions: 15 mg/kg i.p. 30 min after LPS 10 mg/kg
Method: Thirty minutes after intraperitoneal injection of LPS (10 mg/kg of body weight in 0.2 ml), mice were intraperitoneally injected with Lfcin4, Lfcin5 or colistin (15 mg/kg of body weight in 0.2 ml). Mice were sacrificed at 8 h, 1 d, 4 d, and 7 d after LPS injection. The lungs were removed, washed with PBS and fixed in 4% paraformaldehyde at 4 °C for 24 h. After they were washed with PBS and dehydrated with a graded series of ethanol (75‒95%), the tissues were infiltrated with xylene and embedded in paraffin wax. Sections were cut, stained with hematoxylin and eosin and examined under a light microscope. Mice injected with LPS or only PBS served as positive or mock-treated controls, respectively.

[7] = test system: S. aureus ATCC25923; assay: Inner membrane permeabilization, PI staining by flow cytometry; type: cell-based, Staphylococcus aureus; conditions: 1 × MIC, 37 °C, untreated 0.04%
Method: The permeabilization of the inner membrane was performed according to a previous report by Li et al. with slight modifications. […] Bacterial cells were then washed twice with PBS, fixed with 50 μg/ml PI and analyzed using a BD FACS Calibur Flow Cytometer (Franklin Lakes, New Jersey, USA). Data were analyzed using CellQuest Pro software (BD, USA).

[8] = Calcein leakage from model membranes; conditions: at 5 min, POPC/POPG (1:3) LUVs, 0.1% Triton X-100 = total
Method: Large unilamellar vesicles (LUVs) composed of POPC/POPG (1:3) were used as a model anionic membrane. […] were dissolved in chloroform, dried under nitrogen gas and vacuum-dried for 2 h. The lipid film was rehydrated in 20 mM HEPES (150 mM NaCl, 1 mM EDTA, pH 7.4). To make calcein-encapsulated unilamellar liposomes, the lipid film was suspended in 5 mM sodium HEPES (containing 100 mM calcein, pH 7.5). The liposome suspensions were freeze-thawed in liquid nitrogen five times and extruded ten times through two stacked polycarbonate filters (100 nm pore size) in an Avanti Mini-Extruder. Untrapped calcein was removed using a Sephadex G-50 column (Amersham Pharmacia Biotech, Little Chalfont, UK). Peptides were then added to the LUVs. After a 10-min incubation at room temperature, the release of calcein form vesicles was monitored for 10 min on a Tecan Infinite M200 PRO plate reader (TECAN, Austria) with an excitation wavelength of 485 nm and an emission wavelength of 535 nm. The total calcein fluorescence (FT) was determined by the addition of 0.1% Triton X-100. Dye leakage was calculated according to the following equation: leakage rate (%) = ((F − F0)/(FT − F0)), where F0 indicates the fluorescence of each sample at T = 0.

FKAWRWAWRMKKLAAPS [Lfcin4, 17-residue LfcinB17-31 derivative, Trp/Ala-containing]
MIC [1]: 1.8 μM and 4 μg/ml
MIC [2]: >58 μM and >128 μg/ml
reduction of bacterial burden in thigh ([3]; 10 mg/kg single i.v. dose (Fig. 6A)): 0.03 log10 CFU/g
reduction of bacterial burden in thigh ([3]; 15 mg/kg single i.v. dose (Fig. 6A)): 0.10 log10 CFU/g
S. aureus cells killed ([3]; 10 h post-treatment, 15 mg/kg single i.v. dose): 20.5%
greater reduction of viable bacteria in infected thighs compared to control mice ([3]; increasing doses from 10 to 15 mg/kg (discussion)): 0.85 log10 CFU/g of tissue
peptide:DNA mass ratio at which migration of genomic DNA is impaired [4]: over 1.0 mass ratio (peptide:DNA)
cell surface hydrophobicity [5]: 16.45%
lung histology (in words) ([6]; 8 h‒4 d): apparently less lung damage
lung histology (in words) ([6]; 7 d): no obvious pathological differences
PI-positive cells ([7]; 30 min): 44.20%
PI-positive cells ([7]; 120 min): 50.10%
dye (calcein) leakage from vesicles ([8]; 1× MIC): 45.5%
dye (calcein) leakage from vesicles ([8]; 2× MIC): 90.6%
dye (calcein) leakage from vesicles ([8]; 4× MIC): 98.4%
